# Measured values as given in US6878748B2, “Fluorinated cycloalkyl-derivatized benzoylguanidines, process for their preparation, their uses as medicament, and medicament containing them” (Aventis Pharma Deutschland GmbH, priority 2002, dated 2005).
# pIC50: −log10 of the molar value.
# Assays:
# [1] = target: T1, human NHE-1 (Homo sapiens, UniProt P19634); assay: FLIPR assay for NHE-1 inhibition by measurement of the recovery in pHi in transfected cell lines; type: cell-based; conditions: transfected LAP-1 cell line expressing human NHE-1, BCECF fluorescence, read-out: NHE1 inhibition IC50
# T1 construct: expressed in transfected cells; host or cells: LAP-1 cells (parental line has no endogenous NHE activity), G418 selection
# Procedure: The NHE-1 inhibition was determined as follows:
# FLIPR assay for determining NHE-1 inhibitors by measurement of the recovery in pHi in transfected cell lines which express human NHE-1
# The assay is carried out in an FLIPR (fluorescent imaging plate reader) with black-walled 96-well microtiter plates with clear bases.
# (The growth medium for the transfected cells (Iscove +10% fetal calf serum) additionally contains G418 as selection antibiotic in order to ensure the presence of the transfected sequences.)
# The actual assay starts with the removal of the growth medium and addition of 100 μl of loading buffer per well (5 μM BCECF-AM [2′,7′-bis(carboxyethyl)-5-(and -6)-carboxyfluorescein, acetoxymethyl ester] in 20 mM NH4Cl, 115 mM choline chloride, 1 mM MgCl2, 1 mM CaCl2, 5 mM KCl, 20 mM HEPES, 5 mM glucose; pH 7.4 [adjusted with KOH]). The cells are then incubated at 37° C. for 20 minutes. This incubation leads to loading of the cells with the fluorescent dye whose fluorescence intensity depends on pHi, and with NH4Cl, which makes the cells slightly alkaline. [The nonfluorescent dye precursor BCECF-AM is, -as ester, membrane-permeable. The actual dye BCECF, which is not membrane-permeable, is liberated inside cells by esterases.] […]
# T1 sequence (P19634 whole entry): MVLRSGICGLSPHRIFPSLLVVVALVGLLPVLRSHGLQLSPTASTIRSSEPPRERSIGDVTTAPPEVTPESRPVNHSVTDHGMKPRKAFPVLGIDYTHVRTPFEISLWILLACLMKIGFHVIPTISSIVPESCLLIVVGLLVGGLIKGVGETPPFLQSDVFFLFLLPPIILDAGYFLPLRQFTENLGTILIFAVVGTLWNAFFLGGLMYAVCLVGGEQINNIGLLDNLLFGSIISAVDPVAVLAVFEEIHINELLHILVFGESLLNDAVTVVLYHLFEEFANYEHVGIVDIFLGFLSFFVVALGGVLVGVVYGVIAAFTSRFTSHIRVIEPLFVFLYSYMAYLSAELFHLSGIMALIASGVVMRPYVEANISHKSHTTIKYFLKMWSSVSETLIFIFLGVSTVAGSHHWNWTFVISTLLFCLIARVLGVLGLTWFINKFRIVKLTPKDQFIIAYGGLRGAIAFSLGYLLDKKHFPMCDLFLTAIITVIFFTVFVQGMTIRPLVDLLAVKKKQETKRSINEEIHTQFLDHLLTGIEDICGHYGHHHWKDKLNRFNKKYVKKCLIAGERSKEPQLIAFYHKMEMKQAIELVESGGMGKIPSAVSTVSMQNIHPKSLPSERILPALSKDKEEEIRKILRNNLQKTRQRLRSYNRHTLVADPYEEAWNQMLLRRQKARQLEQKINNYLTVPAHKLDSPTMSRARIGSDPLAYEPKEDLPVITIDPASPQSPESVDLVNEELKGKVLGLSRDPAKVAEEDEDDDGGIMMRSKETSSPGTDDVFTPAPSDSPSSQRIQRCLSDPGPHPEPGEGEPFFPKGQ
structure (smiles),measurement,setting,value
"[H]/N=C(\N)NC(=O)c1cc(S(C)(=O)=O)c(OC2CC(F)(F)C2)cc1C [Example 1, N-[4-(3,3-Difluorocyclobutoxy)-5-methanesulfonyl-2-methylbenzoyl]guanidine]",melting point,,273 °C (dec.)
same,pIC50,[1],8.23
